Source: the supplement of paper PMC9663587

Experiments:
[1] = compound: CN(C)C(=O)c1cc2cnc(Nc3ccc(N4CCNCC4)cn3)nc2n1C1CCCC1 [LEE011/Ribociclib]; experiment: increase in dead-cell fraction, 72 h; higher = more death;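 note: breast cancer cell lines in 384-well plates, stained with Hoechst plus LIVE/DEAD far red dye and imaged, cells above an LDR intensity threshold counted dead, Hoechst-negative corpses included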
[2] = compound: CN(C)C/C=C/C(=O)Nc1ccc(C(=O)N2CCC[C@@H](Nc3ncc(Cl)c(-c4c[nH]c5ccccc45)n3)C2)cc1 [THZ531]; experiment: as above
[3] = compound: T1, CN(C)C/C=C/C(=O)Nc1ccc(C(=O)Nc2cccc(Nc3ncc(Cl)c(-c4c[nH]c5ccccc45)n3)c2)cc1 [THZ1]; experiment: as above
[4] = compound: CN1CC[C@H](c2c(O)cc(O)c3c(=O)cc(-c4ccccc4Cl)oc23)[C@H](O)C1 [Flavopiridol]; experiment: as above
[5] = compound: CCOc1cc2ncc(C#N)c(Nc3ccc(OCc4ccccn4)c(Cl)c3)c2cc1NC(=O)/C=C/CN(C)C [Neratinib/HKI272]; experiment: GR value, 72 h; higher = faster growth (1 = untreated, <0 = killing);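 note: breast cancer and non-malignant breast epithelial lines, nine half-log doses, viable cells counted by Hoechst and LIVE/DEAD dye imaging versus time-zero plates and DMSO controls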
[6] = compound: T1, THZ1; experiment: as above

For MDAMB468, the “increase in dead-cell fraction” value ([1]; 0.001 µM) was -0.0034, the “increase in dead-cell fraction” value ([1]; 0.003162 µM) was -0.0042 and the “increase in dead-cell fraction” value ([1]; 0.01 µM) was 0.0065. For the same cell line, the “increase in dead-cell fraction” value ([1]; 0.03162 µM) was -0.0098, the “increase in dead-cell fraction” value ([1]; 0.1 µM) was -0.0059 and the “increase in dead-cell fraction” value ([1]; 0.3162 µM) was -0.0074. The “increase in dead-cell fraction” value ([1]; 1 µM) was -0.0071, the “increase in dead-cell fraction” value ([1]; 3.162 µM) was -0.01 and the “increase in dead-cell fraction” value ([1]; 10 µM) was -0.0011. The “increase in dead-cell fraction” value ([2]; 0.0001 µM) was -0.0128, the “increase in dead-cell fraction” value ([2]; 0.0003162 µM) was 0.0007 and the “increase in dead-cell fraction” value ([2]; 0.001 µM) was -0.006. The “increase in dead-cell fraction” value ([2]; 0.003162 µM) was 0.0023, the “increase in dead-cell fraction” value ([2]; 0.01 µM) was 0.0064 and the “increase in dead-cell fraction” value ([2]; 0.03162 µM) was 0.0382. The “increase in dead-cell fraction” value ([2]; 0.1 µM) was 0.104, the “increase in dead-cell fraction” value ([2]; 0.3162 µM) was 0.168 and the “increase in dead-cell fraction” value ([2]; 1 µM) was 0.141. For the same cell line, the “increase in dead-cell fraction” value ([3]; 0.0001 µM) was -0.0001, the “increase in dead-cell fraction” value ([3]; 0.0003162 µM) was -0.0124 and the “increase in dead-cell fraction” value ([3]; 0.001 µM) was -0.0067. The “increase in dead-cell fraction” value ([3]; 0.003162 µM) was -0.0067, the “increase in dead-cell fraction” value ([3]; 0.01 µM) was 0.0039 and the “increase in dead-cell fraction” value ([3]; 0.03162 µM) was 0.0402. The “increase in dead-cell fraction” value ([3]; 0.1 µM) was 0.165, the “increase in dead-cell fraction” value ([3]; 0.3162 µM) was 0.149 and the “increase in dead-cell fraction” value ([3]; 1 µM) was 0.313. The “increase in dead-cell fraction” value ([4]; 0.0001 µM) was -0.0044, the “increase in dead-cell fraction” value ([4]; 0.0003162 µM) was 0.0084 and the “increase in dead-cell fraction” value ([4]; 0.001 µM) was -0.004. For the same cell line, the “increase in dead-cell fraction” value ([4]; 0.003162 µM) was -0.0097, the “increase in dead-cell fraction” value ([4]; 0.01 µM) was 0.0094 and the “increase in dead-cell fraction” value ([4]; 0.03162 µM) was 0.002. For the same cell line, the “increase in dead-cell fraction” value ([4]; 0.1 µM) was 0.0269, the “increase in dead-cell fraction” value ([4]; 0.3162 µM) was 0.0941 and the “increase in dead-cell fraction” value ([4]; 1 µM) was 0.274. The GR value ([5]; 0.0003162 µM) was 0.947 GR, the GR value ([5]; 0.001 µM) was 0.97 GR and the GR value ([5]; 0.003162 µM) was 0.983 GR. For the same cell line, the GR value ([5]; 0.01 µM) was 0.969 GR, the GR value ([5]; 0.03162 µM) was 0.838 GR and the GR value ([5]; 0.1 µM) was 0.56 GR. The GR value ([5]; 0.3162 µM) was 0.257 GR, the GR value ([5]; 1 µM) was -0.0811 GR and the GR value ([5]; 3.162 µM) was -0.395 GR. For the same cell line, the GR value ([6]; 0.0001 µM) was 1 GR, the GR value ([6]; 0.0003162 µM) was 1.07 GR and the GR value ([6]; 0.001 µM) was 1 GR. For the same cell line, the GR value ([6]; 0.003162 µM) was 0.92 GR, the GR value ([6]; 0.01 µM) was 0.76 GR and the GR value ([6]; 0.03162 µM) was 0.375 GR. It also gave a GR value ([6]; 0.1 µM) of -0.131 GR, a GR value ([6]; 0.3162 µM) of -0.226 GR and a GR value ([6]; 1 µM) of -0.435 GR.
